Literature values as cited in US20110136157A1, “Copper regulation evaluation and therapy” (priority 2005, published 2011).
Like-named read-outs stand apart in the source and are kept apart here.

Experiments:
[1] = tested on: Wilson's disease patients; conditions: long-term use

| solubility (alcohol) | solubility (water) | SMILES | long-term or major side effects [1] |
| --- | --- | --- | --- |
| slightly soluble in alcohol | freely soluble in water | CC(C)(S)[C@@H](N)C(=O)O [Penicillamine, 3-mercapto-D-valine] | – |
| – | – | CC(=O)[O-].CC(=O)[O-].[Zn+2] [Zinc acetate] | has not shown any long-term or major side effects |
